Consider 25 compounds from US7605154B2, “Substituted Thiazolo [4,5-d]pyrimidines as protein kinase inhibitors” (Janssen Pharmaceutica N.V., priority 2005, dated 2009).

T1 sequence (P00533 667-1210 limits assumed): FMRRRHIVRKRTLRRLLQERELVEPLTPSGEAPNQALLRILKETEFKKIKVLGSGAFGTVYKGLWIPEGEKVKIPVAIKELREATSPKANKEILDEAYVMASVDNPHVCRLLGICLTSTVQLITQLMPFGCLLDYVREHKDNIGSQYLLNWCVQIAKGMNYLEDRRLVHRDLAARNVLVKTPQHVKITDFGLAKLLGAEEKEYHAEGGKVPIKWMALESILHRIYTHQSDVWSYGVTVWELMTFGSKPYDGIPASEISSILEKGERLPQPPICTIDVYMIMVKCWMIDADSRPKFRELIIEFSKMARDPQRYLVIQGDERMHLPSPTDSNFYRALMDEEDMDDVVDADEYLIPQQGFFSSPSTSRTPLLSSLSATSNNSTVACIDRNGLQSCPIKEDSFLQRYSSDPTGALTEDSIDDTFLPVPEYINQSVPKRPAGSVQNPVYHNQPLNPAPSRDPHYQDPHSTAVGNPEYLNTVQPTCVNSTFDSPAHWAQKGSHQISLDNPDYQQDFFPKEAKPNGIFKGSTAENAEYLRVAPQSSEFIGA

The experiment has as its target T1, EGFR (Homo sapiens, UniProt P00533).
T1 construct: started at nucleotide 2189 (corresponding to amino acid 667) and ended at the termination codon; made in house; host or cells: Sf9 insect cells (baculovirus)
As to the kind of experiment: EGFR Kinase Assay. In kind it is biochemical. As to conditions: GST-EGFR, 5 μM ATP. From the text: The portion was PCR amplified with primers that added the lambda attB sequences to each end, recombined into an entry vector, then into a, GST destination vector (as described in Gateway Technologies Manual by Invitrogen Corporation, Carlsbad, Calif.).
The destination vector was recombined in the DH10BAC strain of bacteria to produce a bacmid. The bacmid was transfected into Sf 9 cells and the supernatant containing the baculovirus was collected. The GSTEGFR protein was purified using large cultures of Sf 9 cells infected with stock virus. After an appropriate period of time, the cells were collected and lysed. The GSTEGFR was then purified from the lysate on Glutathione-Sepharose columns (as described by Amersham Biosciences, Buckinghamshire, United Kingdom).
The free biotin was separated from the biotinylated polyGluTyr on a gel filtration column.
A mixture of a 10× kinase buffer (500 mM Tris at pH 8.0, 100 mM Magnesium Chloride and 1 mM Sodium Vanadate), DTT (1 mM final from 500 mM stock), ATP (5 μM final from 10 mM stock), biotinylated polyGluTyr (10 μg/μL stock), γ-^33P ATP (10 μCi/μL stock) and water was added to each well (90 μL/well) of a Streptavidin Flashplate (Perkin Elmer, Wellesley, Mass.).
Test compound in 100% DMSO (2 μL) was added to the appropriate wells. Diluted GSTEGFR (1:300 dilution in 50 mM Tris at pH 8.0 and 0.1% bovine serum albumin) (10 μL) was added to the wells to initiate the reactions.
The plates were incubated at 30° C. for 1 hr with shaking. The reacted contents were removed and the plates were sequentially washed three times with a 1×PBS stop buffer (300 μL without Magnesium and Calcium) and 100 mM EDTA. After the final wash, the same stop buffer (200 μL) was added to the wells. The plates were then sealed and read on the TopCount scintillation counter.
Test compounds were assayed in triplicate at 16 concentrations at half-log dilutions starting at 200 uM. A maximum and minimum signal for the assay was determined on each plate. The percent inhibition of a test compound was calculated according to the formula
For a series of test concentrations, the IC50 was derived by graphing percent inhibition against the log of the concentrations tested for a given compound.
As for `C#Cc1cccc(Nc2ncnc3nc(Nc4ccc(CN5CCC[C@H]5CO)cc4)sc23)c1` [Cpd 44, (2S)-(1-{4-[7-(3-ethynyl-phenylamino)-thiazolo[4,5-d]pyrimidin-2-ylamino]-benzyl}-pyrrolidin-2-yl)-methanol], the concentration for half-maximal inhibition (IC50) (as a rule, the concentration at which inhibition is half-maximal) came out at 10 nM. That is a double-digit nanomolar value.
For `C#Cc1cccc(Nc2ncnc3nc(Nc4ccc(CN5CCC[C@@H]5CO)cc4)sc23)c1` [Cpd 54, (2R)-(1-{4-[7-(3-ethynyl-phenylamino)-thiazolo[4,5-d]pyrimidin-2-ylamino]-benzyl}-pyrrolidin-2-yl)-methanol] the value was 10 nM.
For `O=S(=O)(NCCCN1CCOCC1)c1ccc(Nc2nc3ncnc(Nc4ccc(F)c(Cl)c4)c3s2)cc1` [Cpd 41, 4-[7-(3-chloro-4-fluoro-phenylamino)-thiazolo[4,5-d]pyrimidin-2-ylamino]-N-(3-morpholin-4-yl-propyl)-benzenesulfonamide] the value was 10 nM; for `Clc1cccc(Nc2ncnc3nc(Nc4cccc(CN5CCCCC5)c4)sc23)c1` [Cpd 8, N^7-(3-chloro-phenyl)-N^2-(3-piperidin-1-ylmethyl-phenyl)-thiazolo[4,5-d]pyrimidine-2,7-diamine], 34.7 nM; for `NS(=O)(=O)c1ccc(Nc2nc3ncnc(Nc4ccc(N5CCOCC5)cc4)c3s2)cc1` [Cpd 86, 4-[7-(4-(morpholin-4-yl)-phenylamino)-thiazolo[4,5-d]pyrimidin-2-ylamino]-benzenesulfonamide], 17900 nM.
For `COc1cc(Nc2nc3ncnc(Nc4ccc(F)c(Cl)c4)c3s2)ccc1CN1CCCCC1` [Cpd 6, N^7-(3-chloro-4-fluoro-phenyl)-N^2-(3-methoxy4-piperidin-1-ylmethyl-phenyl)-thiazolo[4,5-d]pyrimidine-2,7-diamine] the value was 20 nM.
Regarding `Cc1cccc(Nc2ncnc3nc(Nc4ccc(S(N)(=O)=O)cc4)sc23)c1` [Cpd 79, 4-[7-(3-methyl-phenylamino)-thiazolo[4,5-d]pyrimidin-2-ylamino]-benzenesulfonamide], the IC50 turned out to be 14.3 nM.
Under `C#Cc1cccc(Nc2ncnc3nc(Nc4ccc(CN5CCCC5)cc4)sc23)c1` [Cpd 42, N^7-(3-ethynyl-phenyl)-N^2-(4-pyrrolidin-1-ylmethyl-phenyl)-thiazolo[4,5-d]pyrimidine-2,7-diamine] stands 5.42 nM; under `COC[C@@H]1CCCN1Cc1ccc(Nc2nc3ncnc(Nc4ccc(F)c(Cl)c4)c3s2)cc1` [Cpd 26, N^7-(3-chloro-4-fluoro-phenyl)-N^2-[4-(2S)-(2-methoxymethyl-pyrrolidin-1-ylmethyl)-phenyl]-thiazolo[4,5-d]pyrimidine-2,7-diarmine], 11.8 nM.
`O=S(=O)(c1ccc(Nc2nc3ncnc(Nc4ccc(F)c(Cl)c4)c3s2)cc1)N1CCOCC1` [Cpd 46, N^7-(3-chloro-4-fluoro-phenyl)-N^2-[4-(morpholine-4-sulfonyl)-phenyl]-thiazolo[4,5-d]pyrimidine-2,7-diamine] showed an IC50 of 15.5 nM. The IC50 values of the last two compounds are within 1.5-fold of each other.
Under `CN(Cc1ccc(Nc2nc3ncnc(Nc4ccc(F)c(Cl)c4)c3s2)cc1)C1CCCCC1` [Cpd 21, N^7-(3-chloro-4-fluoro-phenyl)-N^2-{4-[(cyclohexyl-methyl-amino)-methyl]-phenyl}-thiazolo[4,5-d]pyrimidine-2,7-diamine] stands 13.3 nM.
For `CC1CC(C)CN(Cc2ccc(Nc3nc4ncnc(Nc5ccc(F)c(Cl)c5)c4s3)cc2)C1` (stereo not shown) [Cpd 24, N^7-(3-chloro-4-fluoro-phenyl)-N^2-[4-(3,5-dimethyl-piperidin-1-ylmethyl)-phenyl]-thiazolo[4,5-d]pyrimidine-2,7-diamine] the value was 21.6 nM.
Under `NS(=O)(=O)c1ccc(Nc2nc3ncnc(Nc4c(F)cccc4F)c3s2)cc1` [Cpd 75, 4-[7-(2,6-difluoro-phenylamino)-thiazolo[4,5-d]pyrimidin-2-ylamino]-benzenesulfonamide] stands 187 nM.
`C#Cc1cccc(Nc2ncnc3nc(Nc4ccc(CN(CC(C)O)CC(C)O)cc4)sc23)c1` (stereo not shown) [Cpd 61, 1-[{4-[7-(3-ethynyl-phenylamino)-thiazolo[4,5-d]pyrimidin-2-ylamino]-benzyl}-(2-hydroxy-propyl)-amino]-propan-2-ol]: the IC50 is 27.5 nM. This IC50 is about 6.8-fold lower than that of the compound before.
As to `Fc1ccc(Nc2ncnc3nc(Nc4ccc(CN5CCCCCC5)cc4)sc23)cc1Cl` [Cpd 19, N^2-(4-azepan-1-ylmethyl-phenyl)-N^7-(3-chloro-4-fluoro-phenyl)-thiazolo[4,5-d]pyrimidine-2,7-diamine], the IC50 amounted to 6 nM.
For `CN(C)Cc1ccc(Nc2nc3ncnc(Nc4ccc(F)c(Cl)c4)c3s2)cc1` [Cpd 10, N^7-(3-chloro-4-fluoro-phenyl)-N^2-(4-dimethylaminomethyl-phenyl)-thiazolo[4,5-d]pyrimidine-2,7-diamine] the value was 12.3 nM; for `NS(=O)(=O)c1ccc(Nc2nc3ncnc(Nc4ccc(Br)c(Cl)c4)c3s2)cc1` [Cpd 82, 4-[7-(4-bromo-3-chloro-phenylamino)-thiazolo[4,5-d]pyrimidin-2-ylamino]-benzenesulfonamide], 5 nM.
Under `O=S(=O)(NCCN1CCOCC1)c1ccc(Nc2nc3ncnc(Nc4ccc(F)c(Cl)c4)c3s2)cc1` [Cpd 40, 4-[7-(3-chloro-4-fluoro-phenylamino)-thiazolo[4,5-d]pyrimidin-2-ylamino]-N-(2-morpholin-4-yl-ethyl)-benzenesulfonamide] stands 9 nM; under `CN(Cc1ccc(Nc2nc3ncnc(Nc4ccc(F)c(Cl)c4)c3s2)cc1)C[C@@H]1CCCO1` [Cpd 60, N^7-(3-chloro-4-fluoro-phenyl)-N^2-(4-{[methyl-(2S)-(tetrahydro-furan-2-ylmethyl)-amino]-methyl}-phenyl)-thiazolo[4,5-d]pyrimidine-2,7-diamine], 23.9 nM; under `Clc1cc(Cl)cc(Nc2ncnc3nc(Nc4ccccc4)sc23)c1` [Cpd 91, N^7-(3,5-dichloro-phenyl)-N^2-phenyl-thiazolo[4,5-d]pyrimidine-2,7-diamine], 733 nM.
For `CCc1nccn1Cc1ccc(Nc2nc3ncnc(Nc4ccc(F)c(Cl)c4)c3s2)cc1` [Cpd 30, N^7-(3-chloro-4-fluoro-phenyl)-N^2-[4-(2-ethyl-imidazol-1-ylmethyl)-phenyl]-thiazolo[4,5-d]pyrimidine-2,7-diamine], the midpoint of inhibition, the IC50, lay at 5.5 nM.
For `C#Cc1cccc(Nc2ncnc3nc(Nc4ccc(S(=O)(=O)NCCCN(C)C)cc4)sc23)c1` [Cpd 37, N-(3-dimethylamino-propyl)-4-[7-(3-ethynyl-phenylamino)-thiazolo[4,5-d]pyrimidin-2-ylamino]-benzenesulfonamide], the IC50 was 25.3 nM.
For `CC(C)OCCNCc1ccc(Nc2nc3ncnc(Nc4ccc(F)c(Cl)c4)c3s2)cc1` [Cpd 53, N^7-(3-chloro-4-fluoro-phenyl)-N^2-{-4-[(2-isopropoxy-ethylamino)-methyl]-phenyl}-thiazolo[4,5-d]pyrimidine-2,7-diamine] the value was 7.73 nM; for `Fc1ccc(Nc2ncnc3nc(NCCCN4CCOCC4)sc23)cc1Cl` [Cpd 52, N^7-(3-chloro-4-fluoro-phenyl)-N^2-(3-morpholin-4-yl-propyl)-thiazolo[4,5-d]pyrimidine-2,7-diamine], 698 nM; for `O=S(=O)(NCCO)c1ccc(Nc2nc3ncnc(Nc4ccc(F)c(Cl)c4)c3s2)cc1` [Cpd 39, 4-[7-(3-chloro-4-fluoro-phenylamino)-thiazolo[4,5-d]pyrimidin-2-ylamino]-N-(2-hydroxy-ethyl)-benzenesulfonamide], 2.5 nM.
